Laboratory results: patent US20230257367A1, “NOVEL THYROID HORMONE BETA RECEPTOR AGONIST” (Chengdu Kanghong Pharmaceutical Co., Ltd., priority 2020, published 2023)
Where two headings read alike, the source gives them in different places.

Key:
[1] = PK experiment of cynomolgus monkeys; format: in vivo; conditions: cynomolgus monkey, plasma; for AUC(0-t): read-out: Area under the curve AUC(0-t) in the case of administration; for Cmax: read-out: Peak concentration Cmax
Text: The purpose of this experiment was to evaluate the pharmacokinetic behavior of the compound to be tested after single intravenous and intragastric administration, and to study the bioavailability after intragastric administration, providing animal experimental data for clinical studies.
Preparation of solutions for intravenous injection and intragastric administration: an appropriate amount of compound to be tested was accurately weighed, and mixed with a suitable solvent (5 vol % DMSO+10 vol % polyethylene glycol−15-hydroxystearate+85 vol % normal saline). After vortex, or ultrasound processing, a clear and transparent solution (the solution for intravenous injection administration), or a uniform suspension was obtained. The solution administrated by intravenous injection needed to be filtered through a 0.22 μm filter membrane
Experimental design: before the first dose the cynomolgus monkeys were divided into 2 groups by body weight with 3 male cynomolgus monkeys in each group, where animals in group 1 were given the compound to be tested (1 mg/kg) by single intravenous injection (IV); and animals in the 2rd group were administrated with the compound to be tested (5 mg/kg) by single intragastric administration (PO). The animals were weighed before administration, and dosages were calculated based on the weights of the animals.
Sample collection: a whole blood sample (about 0.2 mL) was collected at a specified time by venipuncture of an upper limb (or other suitable blood collection sites), and the actual blood collection time was recorded in test records. The acceptable error for one acquisition time point within 1 hour after administration is ±1 minute, and the acceptable error for other time points is ±5% of the theoretical time. All blood samples were immediately transferred to a labeled commercial centrifuge tube containing K2-EDTA. After blood sample collection, the blood sample was centrifuged at 4° C. and 3,200 g for 10 minutes, the supernatant plasma was sucked, quickly put in dry ice, and kept in a refrigerator at −70±10° C. for LC-MS/MS analysis. The collection time of both groups was 0.083 hour, 0.25 hour, 0.5 hour, 1 hour, 2 hours, 4 hours, 8 hours and 24 hours after administration.
Data processing: Area under the curve (AUC(0-t) and AUC(0-∞)), elimination half-life (T½), peak concentration (Cmax), time to reach maximum plasma concentration (Tmax), etc., were calculated by the non-compartment analysis module in Phoenix WinNonlin 7.0.

TRα-LBD/RXRα = target: T1, TRα-LBD/RXRα (Homo sapiens, UniProt P10827); assay: In vitro binding experiment (TR-FRET SRC2-2 co-activator peptide recruitment), TRα; format: biochemical; conditions: 4 h incubation at room temperature
T1 construct: TRα-LBD (Invitrogen, PV4762), or TRβ-LBD (Invitrogen, PV4764) with a GST tag were used; purchased Invitrogen (TRα-LBD); Pharmaron (RXRα) PV4762

TRβ-LBD/RXRα = target: T2, TRβ-LBD/RXRα (Homo sapiens, UniProt P10828); assay: In vitro binding experiment (TR-FRET SRC2-2 co-activator peptide recruitment), TRβ; format: biochemical; conditions: 4 h incubation at room temperature
T2 construct: TRβ-LBD (Invitrogen, PV4764) with a GST tag were used; purchased Invitrogen (TRβ-LBD); Pharmaron (RXRα) PV4764

TRα = target: T3, TRα (Homo sapiens, UniProt P10827); assay: In vitro TRα cell transfection experiment (GAL4 luciferase reporter, HEK293T); format: cell-based
T3 construct: host or cells: HEK293T
T3 sequence (P10827 1-410 isoform P10827-2): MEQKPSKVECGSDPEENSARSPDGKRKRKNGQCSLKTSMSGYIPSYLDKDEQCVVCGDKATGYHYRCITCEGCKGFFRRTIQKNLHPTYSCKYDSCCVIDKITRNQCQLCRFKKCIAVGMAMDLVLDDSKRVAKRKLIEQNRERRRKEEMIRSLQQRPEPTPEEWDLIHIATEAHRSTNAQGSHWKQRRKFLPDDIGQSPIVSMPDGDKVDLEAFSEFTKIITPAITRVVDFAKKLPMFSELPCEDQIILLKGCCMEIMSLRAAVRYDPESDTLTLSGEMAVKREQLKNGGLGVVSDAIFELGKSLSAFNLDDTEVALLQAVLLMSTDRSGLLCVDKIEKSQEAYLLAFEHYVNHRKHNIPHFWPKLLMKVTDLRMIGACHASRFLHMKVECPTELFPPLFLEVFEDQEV
T3 sequence (P19793 227-458 partner limits assumed): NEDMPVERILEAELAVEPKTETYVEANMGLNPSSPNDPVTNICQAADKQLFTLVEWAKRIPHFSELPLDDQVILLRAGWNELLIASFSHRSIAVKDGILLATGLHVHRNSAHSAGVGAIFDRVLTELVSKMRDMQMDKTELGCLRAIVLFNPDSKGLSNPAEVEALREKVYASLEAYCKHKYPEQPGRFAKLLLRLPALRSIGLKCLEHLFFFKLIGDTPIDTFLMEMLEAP

TRβ = target: T4, TRβ (Homo sapiens, UniProt P10828); assay: In vitro TRβ cell transfection experiment (GAL4 luciferase reporter, HEK293T); format: cell-based
T4 construct: host or cells: HEK293T
T4 sequence (P10828 217-461 limits assumed): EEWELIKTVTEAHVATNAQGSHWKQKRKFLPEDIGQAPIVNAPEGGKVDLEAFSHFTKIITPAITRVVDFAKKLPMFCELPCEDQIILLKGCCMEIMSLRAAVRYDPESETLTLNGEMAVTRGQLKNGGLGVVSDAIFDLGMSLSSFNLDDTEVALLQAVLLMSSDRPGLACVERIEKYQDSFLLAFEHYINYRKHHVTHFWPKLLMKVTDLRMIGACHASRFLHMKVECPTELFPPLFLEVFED
T4 sequence (P19793 227-458 partner limits assumed): T3 sequence (P19793 227-458 partner limits assumed)

T1 sequence (P19793 whole entry partner, other chains not shown, the tested form may be a part): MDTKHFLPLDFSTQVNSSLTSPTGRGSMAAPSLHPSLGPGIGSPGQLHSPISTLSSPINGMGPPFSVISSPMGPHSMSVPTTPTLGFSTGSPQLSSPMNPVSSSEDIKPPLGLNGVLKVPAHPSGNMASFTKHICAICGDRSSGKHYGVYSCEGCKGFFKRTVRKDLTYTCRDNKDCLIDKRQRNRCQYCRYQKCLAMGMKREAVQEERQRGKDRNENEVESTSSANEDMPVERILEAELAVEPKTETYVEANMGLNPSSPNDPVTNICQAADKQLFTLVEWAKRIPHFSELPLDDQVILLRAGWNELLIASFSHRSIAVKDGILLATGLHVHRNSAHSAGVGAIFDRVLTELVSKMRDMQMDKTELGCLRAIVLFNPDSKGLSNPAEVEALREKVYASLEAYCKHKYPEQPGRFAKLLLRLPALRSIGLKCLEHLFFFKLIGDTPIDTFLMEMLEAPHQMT
T2 sequence (P19793 whole entry partner, other chains not shown, the tested form may be a part): as above

half-life ([1]; IV, 1 mg/kg, single dose, male cynomolgus monkeys, read-out: Half-life period (T1/2) (converted)) | bioavailability ([1]; male, PO 5 mg/kg vs IV 1 mg/kg, read-out: Bioavailability (F)) | AUC(0-t) ([1]; male, IV, 1 mg/kg, single dose) | Cmax ([1]; male, IV, 1 mg/kg, single dose) | AUC(0-t) ([1]; male, PO, 5 mg/kg, single dose) | Cmax ([1]; male, PO, 5 mg/kg, single dose) | EC50 (TRα-LBD/RXRα) | EC50 (TRβ-LBD/RXRα) | EC50 (TRα) | EC50 (TRβ) | SMILES
1.45 h | 8.47% | 3900 ng·h/mL | 11200 ng/mL | 1650 ng·h/mL | 430 ng/mL |  |  |  |  | CC(C)c1cc(Oc2c(Cl)cc(-n3nc(C#N)c(=O)[nH]c3=O)cc2Cl)n[nH]c1=O [MGL3196, reference compound]
 |  |  |  |  |  | 0.22 µM | 0.029 µM |  |  | CCC(CC)c1nc(Oc2c(Cl)cc(-n3ncc(=O)[nH]c3=O)cc2Cl)ncc1O [KHE010]
 |  |  |  |  |  | 0.272 µM | 0.003 µM | 0.039 µM | 0.004 µM | O=c1cnn(-c2cc(Cl)c(Oc3ncc(O)c(Cc4ccc(F)cc4)n3)c(Cl)c2)c(=O)[nH]1 [KHE002]
 |  |  |  |  |  | 0.737 µM | 0.077 µM | 3.31 µM | 0.88 µM | N#Cc1nn(-c2cc(Cl)c(Oc3ncc(O)c(C4CC4)n3)c(Cl)c2)c(=O)[nH]c1=O [KHE017]
 |  |  |  |  |  | 0.385 µM | 0.021 µM |  |  | CC(C)c1nc(Sc2c(Cl)cc(-n3nc(C#N)c(=O)[nH]c3=O)cc2Cl)ncc1O [KH17]
 |  |  |  |  |  | 0.258 µM | 0.04 µM | 0.507 µM | 0.074 µM | CCC(CC)c1nc(Oc2c(Cl)cc(-n3nc(C#N)c(=O)[nH]c3=O)cc2Cl)ncc1O [KHE009]
 |  |  |  |  |  | 0.132 µM | 0.054 µM | 2.74 µM | 1.13 µM | CC(C)c1nc(Oc2c(Cl)cc(-n3nc(C#N)c(=O)[nH]c3=O)c3c2CCC3)ncc1O [KH13]
 |  |  |  |  |  |  | 1.06 µM |  |  | CC(C)c1nc(Oc2c(Cl)cc(NCP(=O)(O)O)cc2Cl)ncc1O [KH02]
 |  |  |  |  |  | 0.194 µM | 0.014 µM | 1.46 µM | 0.205 µM | [2H]C([2H])([2H])C(c1nc(Oc2c(Cl)cc(-n3nc(C#N)c(=O)[nH]c3=O)cc2Cl)ncc1O)C([2H])([2H])[2H] [KH15]
 |  |  |  |  |  | 0.418 µM | 0.007 µM | 0.563 µM | 0.258 µM | N#Cc1nn(-c2cc(Cl)c(Oc3ncc(O)c(Cc4ccc(F)cc4)n3)c(Cl)c2)c(=O)[nH]c1=O [KHE001]
 |  |  |  |  |  | 0.188 µM | 0.011 µM | 0.028 µM | 0.007 µM | CC(C)c1nc(Sc2c(Cl)cc(-n3ncc(=O)[nH]c3=O)cc2Cl)ncc1O [KH18]
 |  |  |  |  |  | 0.106 µM | 0.012 µM | 0.138 µM | 0.019 µM | [2H]C([2H])([2H])C(c1nc(Oc2c(Cl)cc(-n3ncc(=O)[nH]c3=O)cc2Cl)ncc1O)C([2H])([2H])[2H] [KH16]
 |  |  |  |  |  | 0.102 µM | 0.105 µM | 0.383 µM | 0.148 µM | CC(C)c1nc(Oc2c(Cl)cc(-n3ncc(=O)[nH]c3=O)c3c2CCC3)ncc1O [KH14]
 |  |  |  |  |  | 0.008 µM | 0.001 µM | 1.17 µM | 0.5 µM | CC(C)c1nc(Oc2c(Cl)cc(NC(=O)C(=O)O)cc2Cl)ncc1O [KHE021]
 |  |  |  |  |  | 2.38 µM | 0.254 µM |  |  | N#Cc1nn(-c2cc(Cl)c(Oc3ncc(O)c(C4CC(F)(F)C4)n3)c(Cl)c2)c(=O)[nH]c1=O [KHE019]
 |  |  |  |  |  | 0.573 µM | 0.746 µM |  |  | CC(C)c1nc(Oc2c(Cl)cc(-c3noc(=O)[nH]3)cc2Cl)ncc1O [KHE003]
 |  |  |  |  |  | 1.88 µM | 0.066 µM |  |  | N#Cc1nn(-c2cc(Cl)c(Oc3ncc(O)c(Cc4ccccc4)n3)c(Cl)c2)c(=O)[nH]c1=O [KH09]
 |  |  |  |  |  | 4.54 µM | 0.067 µM | 0.049 µM | 0.008 µM | O=c1cnn(-c2cc(Cl)c(Oc3ncc(O)c(CC4CCCCC4)n3)c(Cl)c2)c(=O)[nH]1 [KHE008]
 |  |  |  |  |  | 0.346 µM | 0.04 µM | 0.407 µM | 0.102 µM | O=c1cnn(-c2cc(Cl)c(Oc3ncc(O)c(C4CC4)n3)c(Cl)c2)c(=O)[nH]1 [KHE018]
 |  |  |  |  |  | 0.133 µM | 0.113 µM | 2.49 µM | 1.28 µM | CC(C)c1nc(Oc2c(Cl)cc(NCC(=O)O)cc2Cl)ncc1O [KH04]
 |  |  |  |  |  | 0.31 µM | 0.048 µM | 0.964 µM | 0.208 µM | CC(C)c1nc(Oc2c(Cl)cc(-n3nc(C#N)c(=O)[nH]c3=O)c3c2CCO3)ncc1O [KH07]
 |  |  |  |  |  | 5.12 µM | 0.089 µM | 0.528 µM | 0.227 µM | N#Cc1nn(-c2cc(Cl)c(Oc3ncc(O)c(CC4CCCCC4)n3)c(Cl)c2)c(=O)[nH]c1=O [KHE007]
